# pIC50: −log10 of the molar value.
# Target: T1, Human DGAT1 (Homo sapiens, UniProt O75907)
# T1 construct: my translation of the primer: M-G-DYKDDDD-GDRGSSRRR) (N); made in house; host or cells: Sf9 insect cells (recombinant baculovirus BAC-DGAT1, pFASTBAC1); microsome fraction
# T1 sequence (O75907 1-488): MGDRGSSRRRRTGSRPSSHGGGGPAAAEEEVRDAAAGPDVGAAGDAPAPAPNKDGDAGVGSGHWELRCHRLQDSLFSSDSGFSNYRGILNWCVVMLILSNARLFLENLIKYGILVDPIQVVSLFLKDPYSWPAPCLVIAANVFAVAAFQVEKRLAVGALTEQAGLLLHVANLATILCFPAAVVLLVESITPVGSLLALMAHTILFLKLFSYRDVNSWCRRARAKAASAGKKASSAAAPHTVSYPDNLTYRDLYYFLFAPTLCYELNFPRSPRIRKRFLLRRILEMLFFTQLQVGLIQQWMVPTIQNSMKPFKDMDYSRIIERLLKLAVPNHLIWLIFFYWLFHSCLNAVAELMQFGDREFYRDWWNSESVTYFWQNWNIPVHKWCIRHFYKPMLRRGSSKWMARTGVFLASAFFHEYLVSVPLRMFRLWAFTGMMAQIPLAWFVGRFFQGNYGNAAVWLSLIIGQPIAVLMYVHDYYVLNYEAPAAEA
# Experiment: DGAT inhibitory activity: [14C]-triglyceride synthesis by DGAT1 high expression Sf9 microsome
# Format: biochemical
# Conditions: Table 1, 25 μM dioleoylglycerol, 25 μM [14C]-Oleoyl-CoA, 32° C., 15 min, read-out: DGAT inhibitory activity (according to IC50)
# Procedure: The primer base sequence is shown below.
# The PCR reaction was conducted using a KOD-plus kit (TOYOBO). The obtained PCR product was electrophoresed on agarose gel (1%), the DNA fragment amplified by PCR was recovered from the gel, and then digested with restriction enzymes EcoRI and SpeI. […] Furthermore, using BAC-TO-BAC Baculovirus Expression System (Invitrogen), recombinant baculovirus BAC-DGAT1 was prepared.
# SF9 cells were sown at 1×10^6 cells/ml on Sf-900II SEM medium (1 L, Invitrogen) containing 10% fetal calf serum (Trace), 50 mg/L gentamicin (Invitrogen) and 0.1% Pluronic F-68 (Invitrogen), and shaking culture was performed using a 2 L volume Erlenmeyer at 27° C., 100 rpm. After culturing for 24 hr, recombinant baculovirus BAC-DGAT1 (6.7 mL) was added, and the mixture was further cultured for 3 days. The culture medium was centrifuged at 2,000 rpm for 5 min to give virus-infected cells. The infected cells were washed with a phosphate buffered saline (Invitrogen), centrifuged under the same conditions, and the cells were preserved at −80° C. The cryopreserved cells were thawed in ice, suspended in buffer A (50 mM Tris buffer (30 mL, pH 7.4) containing 20% glycerol, 0.15 M NaCl) supplemented with Complete Protease Inhibitor (Boehringer), and ruptured 3 times with a Polytron homogenizer (Kinematica) at 20,000 rpm for 30 sec. The Sf9 microsome fractions were obtained by a conventional method and cryopreserved at −80° C. as a DGAT1 high expression Sf9 microsome.
# As a DGAT1 reaction buffer, a solution having a composition of 100 mM Tris-HCl (pH 7.5), 250 mM sucrose, 150 mM MgCl2, 0.01% bovine serum albumin (BSA) was used. […] A mixture of 300 μL of chloroform:methanol (=1:2) was added to the reaction mixture to quench the reaction. The reaction mixture was sufficiently mixed and saline (200 μL) was added to partition the mixture between a chloroform layer (lower layer) and an aqueous layer (upper layer). The chloroform layer (50 μL) was spotted on a thin layer chromatography silica gel plate (TLC plate, Merck) and developed with a solvent (n-hexane:diethyl ether:ethyl acetate:acetic acid=74:15:15:1). The developed TLC plate was dried, contacted with a BAS imaging plate (manufactured by FUJIFILM) and measured with BAS2500 (manufactured by FUJIFILM) 16 hr later to numerically show the amount of [^14C]-triglyceride (TG amount) produced during the reaction. The inhibitory rate was calculated by the following formula:
# Inhibitory rate (%)=(1−(TG amount in the case with addition of test compound−blank TG amount)/(control TG amount−blank TG amount))×100
# The count of the triglyceride produced in the solution reacted without addition of the test compound was used as a “control TG amount”, and the count of the triglyceride produced in the solution reacted without addition of the test compound and DGAT1 high expression Sf9 microsome was used as a “blank TG amount”.
row,SMILES,pIC50
1,"CCOc1ccc(C(=O)CCC(=O)Nc2nc(-c3ccccc3)c(Cc3ccccc3)s2)cc1 [Example 1, N-(5-benzyl-4-phenyl-1,3-thiazol-2-yl)-4-(4-ethoxyphenyl)-4-oxobutanamide]",≥ 8.00
2,"CCOc1ccc(C(=O)CCC(=O)Nc2cc(-c3ccccc3)cc(-c3ccccc3)c2)cc1OCC [Example 8, 4-(3,4-diethoxyphenyl)-4-oxo-N-(1,1′:3′,1″-terphenyl-5′-yl)butanamide]",6.30 to 7.30
3,"CCOc1ccc(C(=O)CCC(=O)Nc2cc(OCc3ccccc3)cc(-c3ccccc3)n2)cc1OCC [Example 42, 4-(3,4-diethoxyphenyl)-N-(4-(benzyloxy)-6-phenylpyridin-2-yl)-4-oxobutanamide]",6.30 to 7.30
4,"CCOC(=O)/C=C/c1ccc(Cc2sc(NC(=O)CCC(=O)c3ccc(OCC)c(OCC)c3)cc2-c2ccccc2)cc1 [Example 51, ethyl (2E)-3-{4-[(5-{[4-(3,4-diethoxyphenyl)-4-oxobutanoyl]amino}-3-phenyl-2-thienyl)methyl]phenyl}acrylate]",6.30 to 7.30
5,"CCOc1ccc(C(=O)CCC(=O)Nc2ccc(CCC(=O)O)c(-c3ccccc3)c2)cc1OCC [Example 10, 3-(5-{[4-(3,4-diethoxyphenyl)-4-oxobutanoyl]amino}biphenyl-2-yl)propanoic acid]",5.00 to 6.30
6,"CCOc1ccc(C(=O)CCC(=O)Nc2cc(-c3ccc(OCC(=O)O)cc3)c3ccccc3n2)cc1OCC [Example 23, [4-(2-{[4-(3,4-diethoxyphenyl)-4-oxobutanoyl]amino}quinolin-4-yl)phenoxy]acetic acid]",5.00 to 6.30
7,"COc1ccc(C(=O)CCC(=O)Nc2cc(-c3ccccc3)c(Cc3ccccc3)s2)cc1CCCO [Example 54, N-(5-benzyl-4-phenyl-2-thienyl)-4-[3-(3-hydroxypropyl)-4-methoxyphenyl]-4-oxobutanamide]",6.30 to 7.30

# Same assay, conditions: Table 2, 25 μM dioleoylglycerol, 25 μM [14C]-Oleoyl-CoA, 32° C., 15 min, read-out: DGAT inhibitory activity (according to IC50)
row,SMILES,pIC50
1,"CCOc1ccc(C(=O)CCC(=O)Nc2cc3ccccc3c(N3CCCCC3)n2)cc1OCC [Example 85, 4-(3,4-diethoxyphenyl)-4-oxo-N-[1-(piperidin-1-yl)isoquinolin-3-yl]butanamide]",5.00 to 6.30
2,"CCOc1ccc(C(=O)CCC(=O)Nc2cc(-c3ccc4[nH]ccc4c3)cc(-c3ccccc3)n2)cc1OCC [Example 121, 4-(3,4-diethoxyphenyl)-N-[4-(1H-indol-5-yl)-6-phenylpyridin-2-yl]-4-oxobutanamide]",≥ 8.00
3,"CCOc1ccc(C(=O)CCC(=O)Nc2cc(-c3cccc(O)c3)cc(-c3ccccc3)n2)cc1OCC [Example 134, 4-(3,4-diethoxyphenyl)-N-[4-(3-hydroxyphenyl)-6-phenylpyridin-2-yl]-4-oxobutanamide]",7.30 to 8.00
4,"N#CCc1cccc(-c2cc(NC(=O)CCC(=O)c3ccc4c(c3)CCO4)nc(-c3ccccc3)c2)c1 [Example 164, N-{4-[3-(cyanomethyl)phenyl]-6-phenylpyridin-2-yl}-4-(2,3-dihydro-1-benzofuran-5-yl)-4-oxobutanamide]",7.30 to 8.00
5,"CCOC(=O)c1c(NC(=O)CCC(=O)c2ccc(OCC)c(OCC)c2)sc(Cc2ccccc2)c1-c1ccccc1 [Example 96, ethyl 5-benzyl-2-{[4-(3,4-diethoxyphenyl)-4-oxobutanoyl]amino}-4-phenylthiophene-3-carboxylate]",6.30 to 7.30
6,"O=C(CCC(=O)c1ccc2c(c1)CCO2)Nc1cc(-c2ccccc2)cc(-c2ccccc2)n1 [Example 104, 4-(2,3-dihydro-1-benzofuran-5-yl)-N-(4,6-diphenylpyridin-2-yl)-4-oxobutanamide]",6.30 to 7.30
7,"CCOc1ccc(C(=O)CCC(=O)Nc2cc(-c3ccc(CN4CCOCC4)cc3)cc(-c3ccccc3)n2)cc1OCC [Example 130, 4-(3,4-diethoxyphenyl)-N-{4-[4-(morpholin-4-ylmethyl)phenyl]-6-phenylpyridin-2-yl}-4-oxobutanamide]",5.00 to 6.30
8,"CCOc1ccc(C(=O)CCC(=O)Nc2cc(-c3ccc(O)c(OC)c3)cc(-c3ccccc3)n2)cc1OCC [Example 149, 4-(3,4-diethoxyphenyl)-N-[4-(4-hydroxy-3-methoxyphenyl)-6-phenylpyridin-2-yl]-4-oxobutanamide]",7.30 to 8.00
9,"CCOc1ccc(C(=O)CCC(=O)Nc2cc(-c3ccc(OCCN)cc3)c3ccccc3n2)cc1OCC [Example 94, N-{4-[4-(2-aminoethoxy)phenyl]quinolin-2-yl}-4-(3,4-diethoxyphenyl)-4-oxobutanamide]",6.30 to 7.30
10,"CCOc1ccc(C(=O)CCC(=O)Nc2cn(Cc3ccccc3)nc2-c2ccccc2)cc1 [Example 109, N-(1-benzyl-3-phenyl-1H-pyrazol-4-yl)-4-(4-ethoxyphenyl)-4-oxobutanamide]",5.00 to 6.30
11,"CCCCOc1cccc(-c2cc(NC(=O)CCC(=O)c3ccc4c(c3)CCO4)nc(-c3ccccc3)c2)c1 [Example 166, N-[4-(3-butoxyphenyl)-6-phenylpyridin-2-yl]-4-(2,3-dihydro-1-benzofuran-5-yl)-4-oxobutanamide]",5.00 to 6.30
12,"COc1ccccc1-c1cc(NC(=O)CCC(=O)c2ccc3c(c2)CCO3)nc(-c2ccccc2)c1 [Example 178, 4-(2,3-dihydro-1-benzofuran-5-yl)-N-[4-(2-methoxyphenyl)-6-phenylpyridin-2-yl]-4-oxobutanamide]",7.30 to 8.00
13,"CCOc1ccc(C(=O)CCC(=O)Nc2cc(-c3ccccc3C(=O)O)cc(-c3ccccc3)n2)cc1OCC [Example 148, 2-(2-{[4-(3,4-diethoxyphenyl)-4-oxobutanoyl]amino}-6-phenylpyridin-4-yl)benzoic acid]",5.00 to 6.30
14,"CCOc1ccc(C(=O)CCC(=O)Nc2sc(-c3ccccc3)nc2-c2ccccc2)cc1 [Example 66, 4-(4-ethoxyphenyl)-N-(2,4-diphenyl-1,3-thiazol-5-yl)-4-oxobutanamide]",5.00 to 6.30
15,"CCOc1ccc(C(=O)CCC(=O)Nc2cc(-c3ccccc3)c3ccccc3n2)cc1OCC [Example 74, 4-(3,4-diethoxyphenyl)-4-oxo-N-(4-phenylquinolin-2-yl)butanamide]",≥ 8.00
16,"O=C(CCC(=O)c1ccc2c(c1)CCO2)Nc1cc(-c2ccc3[nH]ccc3c2)cc(-c2ccccc2)n1 [Example 154, 4-(2,3-dihydro-1-benzofuran-5-yl)-N-[4-(1H-indol-5-yl)-6-phenylpyridin-2-yl]-4-oxobutanamide]",7.30 to 8.00
17,"CCOc1ccc(C(=O)CCC(=O)Nc2cc(-c3ccc(C)cc3)c3cc(/C=C/C(=O)OC(C)(C)C)ccc3n2)cc1OCC [Example 78, tert-butyl (2E)-3-[2-{[4-(3,4-diethoxyphenyl)-4-oxobutanoyl]amino}-4-(4-methylphenyl)quinoline-6-yl]acrylate]",6.30 to 7.30
18,"CCOc1ccc(C(=O)CCC(=O)Nc2cc(-c3ccc(OCCN4CCOCC4)cc3)c3ccccc3n2)cc1OCC [Example 90, 4-(3,4-diethoxyphenyl)-N-{4-[4-(2-(morpholin-4-yl)ethoxy)phenyl]quinolin-2-yl}-4-oxobutanamide]",6.30 to 7.30
19,"CCOc1ccc(C(=O)CCC(=O)Nc2cc(-c3ccc(CO)cc3)cc(-c3ccccc3)n2)cc1OCC [Example 124, 4-(3,4-diethoxyphenyl)-N-{4-[4-(hydroxymethyl)phenyl]-6-phenylpyridin-2-yl}-4-oxobutanamide]",7.30 to 8.00

# Reference: patent US20090048258A1, “Amide Compound” (priority 2005, published 2009)
